What was measured:
Type in all cases: in vivo
[1] = tested on: ducksalad (Heteranthera limosa); experiment: Test B flooded paddy test; settings: for Plant response rating, Flood, Ducksalad: 250 g ai/ha, flooded paddy test, visual rating on 0 to 100 scale (0 no effect, 100 complete control) after 13 to 15 days; for Plant response rating, Ducksalad: Flood (flooded paddy test), 13 to 15 days
Method in brief: (§1)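 Each compound is added to standing floodwater (3 cm above soil, maintained) in pots of 2-leaf-stage plants; greenhouse exposure lasts 13–15 d before visual comparison with controls on a 0–100 control scale.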

[2] = tested on: rice (Oryza sativa); experiment: Test B flooded paddy test; settings: for Plant response rating, Flood, Rice: 250 g ai/ha, flooded paddy test, visual rating on 0 to 100 scale (0 no effect, 100 complete control) after 13 to 15 days; for Plant response rating, Rice: Flood (flooded paddy test), 13 to 15 days
Method in brief: as §1

[3] = tested on: barnyardgrass (Echinochloa crus-galli); experiment: Test B flooded paddy test; settings: for Plant response rating, Flood, Barnyardgrass: 250 g ai/ha, flooded paddy test, visual rating on 0 to 100 scale (0 no effect, 100 complete control) after 13 to 15 days; for Plant response rating, Barnyardgrass: Flood (flooded paddy test), 13 to 15 days
Method in brief: as §1

[4] = tested on: umbrella sedge (Cyperus difformis); experiment: Test B flooded paddy test; settings: for Plant response rating, Flood, Sedge, Umbrella: 250 g ai/ha, flooded paddy test, visual rating on 0 to 100 scale (0 no effect, 100 complete control) after 13 to 15 days; for Plant response rating, Sedge, Umbrella: Flood (flooded paddy test), 13 to 15 days
Method in brief: as §1

[5] = tested on: large crabgrass (Digitaria sanguinalis); experiment: Test A pre-/postemergence plant response
Method in brief: (§2)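 Greenhouse pots of loam/sand received directed preemergence soil sprays or postemergence sprays (plants 2–10 cm, 1–2 leaf stage), compounds formulated in non-phytotoxic solvent with surfactant. Injury was rated visually versus untreated controls after about ten days on a 0 (no effect) to 100 (complete control) scale.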

[6] = tested on: giant foxtail (Setaria faberii); experiment: Test A pre-/postemergence plant response
Method in brief: as §2

[7] = tested on: corn (Zea mays); experiment: Test A pre-/postemergence plant response
Method in brief: as §2

[8] = tested on: wheat (Triticum aestivum); experiment: Test A pre-/postemergence plant response
Method in brief: as §2

[9] = tested on: morningglory (Ipomoea spp.); experiment: Test A pre-/postemergence plant response
Method in brief: as §2

[10] = tested on: barnyardgrass (Echinochloa crus-galli); experiment: Test A pre-/postemergence plant response
Method in brief: as §2

[11] = tested on: pigweed (Amaranthus retroflexus); experiment: Test A pre-/postemergence plant response
Method in brief: as §2

[12] = tested on: velvetleaf (Abutilon theophrasti); experiment: Test A pre-/postemergence plant response
Method in brief: as §2

[13] = 62 g ai/ha, scale of 0 to 100 where 0 is no effect and 100 is complete control
[14] = 125 g ai/ha, scale 0 to 100, 0 is no effect, 100 is complete control
[15] = Flood, 31 g ai/ha, scale 0 to 100 (0 no effect, 100 complete control)
[16] = Postemergence, 125 g ai/ha, 0 to 100 scale where 0 is no effect and 100 is complete control
[17] = Postemergence, 500 g ai/ha, 0 to 100 scale, 0 = no effect, 100 = complete control, approx. ten days
[18] = Preemergence, 125 g ai/ha, 0 to 100 scale, 0 = no effect, 100 = complete control
[19] = Preemergence, 500 g ai/ha, visual injury, 0 to 100 scale (0 no effect, 100 complete control), approx. ten days
[20] = Postemergence, 500 g ai/ha, visual injury, 0 to 100 scale (0 no effect, 100 complete control), approx. ten days
[21] = Preemergence, 500 g ai/ha, 0 to 100 scale, 0 = no effect, 100 = complete control
[22] = 31 g ai/ha, scale of 0 to 100 where 0 is no effect and 100 is complete control
[23] = Postemergence, 125 g ai/ha, visual injury, 0 to 100 scale (0 no effect, 100 complete control), approx. ten days

Structure (SMILES): CC(C)CC(=O)OC1=C(C(=O)c2cnc(-c3ccccc3)n(-c3ccccc3)c2=O)C(=O)CCC1 [Compound 83]
- Plant response rating, Flood, Ducksalad [1]: 50
- Plant response rating, Ducksalad [1, 13]: 30
- Plant response rating, Ducksalad [1, 14]: 40
- Ducksalad plant response rating [1, 15]: 20
- Plant response rating, Flood, Rice [2]: 30
- Plant response rating, Rice [2, 13]: 0
- Plant response rating, Rice [2, 14]: 0
- Rice plant response rating [2, 15]: 0
- Plant response rating, Flood, Barnyardgrass [3]: 40
- Plant response rating, Barnyardgrass [3, 13]: 0
- Plant response rating, Barnyardgrass [3, 14]: 15
- Barnyardgrass plant response rating [3, 15]: 0
- Plant response rating, Flood, Sedge, Umbrella [4]: 50
- Plant response rating, Sedge, Umbrella [4, 13]: 30
- Plant response rating, Sedge, Umbrella [4, 14]: 40
- Sedge, Umbrella plant response rating [4, 15]: 0
- Plant response rating, Crabgrass, Large [5, 16]: 80
- Plant response rating, Crabgrass, Large [5, 17]: 90
- Plant response rating, Crabgrass, Large [5, 18]: 70
- Plant response rating, Crabgrass, Large [5, 19]: 100
- Plant response rating, Foxtail, Giant [6, 16]: 70
- Plant response rating, Foxtail, Giant [6, 17]: 90
- Plant response rating, Foxtail, Giant [6, 18]: 40
- Plant response rating, Foxtail, Giant [6, 19]: 90
- Plant response rating, Corn [7, 16]: 0
- Plant response rating, Corn [7, 17]: 30
- Plant response rating, Corn [7, 18]: 0
- Plant response rating, Corn [7, 19]: 20
- Plant response rating, Wheat [8, 16]: 0
- Plant response rating, Wheat [8, 17]: 0
- Plant response rating, Wheat [8, 18]: 0
- Plant response rating, Wheat [8, 19]: 30
- Plant response rating, Morningglory [9, 16]: 100
- Plant response rating, Morningglory [9, 17]: 100
- Plant response rating, Morningglory [9, 18]: 20
- Plant response rating, Morningglory [9, 19]: 60
- Plant response rating, Barnyardgrass [10, 16]: 70
- Plant response rating, Barnyardgrass [10, 17]: 90
- Plant response rating, Barnyardgrass [10, 18]: 30
- Plant response rating, Barnyardgrass [10, 19]: 90
- Plant response rating, Pigweed [11, 16]: 90
- Plant response rating, Pigweed [11, 17]: 100
- Plant response rating, Pigweed [11, 18]: 80
- Plant response rating, Pigweed [11, 19]: 100
- Plant response rating, Velvetleaf [12, 16]: 100
- Plant response rating, Velvetleaf [12, 17]: 100
- Plant response rating, Velvetleaf [12, 18]: 70
- Plant response rating, Velvetleaf [12, 19]: 100

Structure (SMILES): O=C1CCCC(O)=C1C(=O)c1cnc(-c2cccc(F)c2)n(C2CCCCC2)c1=O [Compound 187]
- Plant response rating, Flood, Ducksalad [1]: 100
- Plant response rating, Ducksalad [1, 13]: 95
- Plant response rating, Flood, Rice [2]: 70
- Plant response rating, Rice [2, 13]: 15
- Plant response rating, Flood, Barnyardgrass [3]: 80
- Plant response rating, Barnyardgrass [3, 13]: 45
- Plant response rating, Flood, Sedge, Umbrella [4]: 100
- Plant response rating, Sedge, Umbrella [4, 13]: 95
- Plant response rating, Crabgrass, Large [5, 16]: 90
- Crabgrass, Large plant response rating [5, 20]: 100
- Plant response rating, Crabgrass, Large [5, 18]: 30
- Plant response rating, Crabgrass, Large [5, 21]: 90
- Plant response rating, Foxtail, Giant [6, 16]: 80
- Foxtail, Giant plant response rating [6, 20]: 90
- Plant response rating, Foxtail, Giant [6, 18]: 30
- Plant response rating, Foxtail, Giant [6, 21]: 90
- Plant response rating, Corn [7, 16]: 0
- Corn plant response rating [7, 20]: 50
- Plant response rating, Corn [7, 18]: 0
- Plant response rating, Corn [7, 21]: 0
- Plant response rating, Wheat [8, 16]: 0
- Wheat plant response rating [8, 20]: 0
- Plant response rating, Wheat [8, 18]: 0
- Plant response rating, Wheat [8, 21]: 0
- Plant response rating, Morningglory [9, 16]: 100
- Morningglory plant response rating [9, 20]: 100
- Plant response rating, Morningglory [9, 18]: 80
- Plant response rating, Morningglory [9, 21]: 90
- Plant response rating, Barnyardgrass [10, 16]: 90
- Barnyardgrass plant response rating [10, 20]: 100
- Plant response rating, Barnyardgrass [10, 18]: 20
- Plant response rating, Barnyardgrass [10, 21]: 90
- Plant response rating, Pigweed [11, 16]: 100
- Pigweed plant response rating [11, 20]: 100
- Plant response rating, Pigweed [11, 18]: 60
- Plant response rating, Pigweed [11, 21]: 70
- Plant response rating, Velvetleaf [12, 16]: 100
- Velvetleaf plant response rating [12, 20]: 100
- Plant response rating, Velvetleaf [12, 18]: 70
- Plant response rating, Velvetleaf [12, 21]: 100

Structure (SMILES): Cc1cc(-n2c(-c3ccccc3)ncc(C(=O)C3=C(O)CCCC3=O)c2=O)ccc1F [Compound 53]
- Plant response rating, Flood, Ducksalad [1]: 75
- Plant response rating, Ducksalad [1, 22]: 40
- Plant response rating, Ducksalad [1, 13]: 65
- Plant response rating, Ducksalad [1, 14]: 75
- Plant response rating, Flood, Rice [2]: 85
- Plant response rating, Rice [2, 22]: 15
- Plant response rating, Rice [2, 13]: 20
- Plant response rating, Rice [2, 14]: 60
- Plant response rating, Flood, Barnyardgrass [3]: 75
- Plant response rating, Barnyardgrass [3, 22]: 20
- Plant response rating, Barnyardgrass [3, 13]: 40
- Plant response rating, Barnyardgrass [3, 14]: 55
- Plant response rating, Flood, Sedge, Umbrella [4]: 90
- Plant response rating, Sedge, Umbrella [4, 22]: 40
- Plant response rating, Sedge, Umbrella [4, 13]: 85
- Plant response rating, Sedge, Umbrella [4, 14]: 90
- Crabgrass, Large plant response rating [5, 23]: 90
- Plant response rating, Crabgrass, Large [5, 17]: 100
- Plant response rating, Crabgrass, Large [5, 18]: 90
- Plant response rating, Crabgrass, Large [5, 19]: 100
- Foxtail, Giant plant response rating [6, 23]: 90
- Plant response rating, Foxtail, Giant [6, 17]: 90
- Plant response rating, Foxtail, Giant [6, 18]: 70
- Plant response rating, Foxtail, Giant [6, 19]: 100
- Corn plant response rating [7, 23]: 0
- Plant response rating, Corn [7, 17]: 80
- Plant response rating, Corn [7, 18]: 0
- Plant response rating, Corn [7, 19]: 0
- Wheat plant response rating [8, 23]: 30
- Plant response rating, Wheat [8, 17]: 50
- Plant response rating, Wheat [8, 18]: 0
- Plant response rating, Wheat [8, 19]: 10
- Morningglory plant response rating [9, 23]: 100
- Plant response rating, Morningglory [9, 17]: 100
- Plant response rating, Morningglory [9, 18]: 80
- Plant response rating, Morningglory [9, 19]: 90
- Barnyardgrass plant response rating [10, 23]: 90
- Plant response rating, Barnyardgrass [10, 17]: 100
- Plant response rating, Barnyardgrass [10, 18]: 40
- Plant response rating, Barnyardgrass [10, 19]: 100
- Pigweed plant response rating [11, 23]: 100
- Plant response rating, Pigweed [11, 17]: 100
- Plant response rating, Pigweed [11, 18]: 90
- Plant response rating, Pigweed [11, 19]: 100
- Velvetleaf plant response rating [12, 23]: 100
- Plant response rating, Velvetleaf [12, 17]: 100
- Plant response rating, Velvetleaf [12, 18]: 80
- Plant response rating, Velvetleaf [12, 19]: 90

Reference: patent publication US8952024B2, “Herbicidal pyrimidone derivatives” (E I du Pont de Nemours and Company, priority 2009, dated 2015)
